Laboratory results reported in PMC12591375 (British journal of pharmacology, 2022).
Marks after values point to notes of the source that are not given here.

How the values were obtained:
Type in all cases: cell-based
CB2 [1] = target: T1, CB2 (Homo sapiens, UniProt P34972, Q63R); assay: β-arrestin 2 translocation real-time BRET assay, wild-type CB2; details: for pEC50, β-arrestin 2 translocation to CB2: HEK 293 cells
CB2 [2] = target: T1, CB2; assay: β-arrestin 1 translocation real-time BRET assay; details: HEK 293 cells
CB2 [3] = target: T1, CB2; assay: β-arrestin 1 translocation real-time BRET assay; details: for EC50: pEC50, β-arrestin 1 translocation to CB2, HEK 293 cells; for pEC50, β-arrestin 1 translocation to CB2: HEK 293 cells
CB2 [4] = target: T1, CB2; assay: β-arrestin 2 translocation real-time BRET assay, wild-type CB2; details: for Span, β-arrestin 2 translocation to CB2: HEK 293 cells

T1 sequence (P34972 whole entry Q63R): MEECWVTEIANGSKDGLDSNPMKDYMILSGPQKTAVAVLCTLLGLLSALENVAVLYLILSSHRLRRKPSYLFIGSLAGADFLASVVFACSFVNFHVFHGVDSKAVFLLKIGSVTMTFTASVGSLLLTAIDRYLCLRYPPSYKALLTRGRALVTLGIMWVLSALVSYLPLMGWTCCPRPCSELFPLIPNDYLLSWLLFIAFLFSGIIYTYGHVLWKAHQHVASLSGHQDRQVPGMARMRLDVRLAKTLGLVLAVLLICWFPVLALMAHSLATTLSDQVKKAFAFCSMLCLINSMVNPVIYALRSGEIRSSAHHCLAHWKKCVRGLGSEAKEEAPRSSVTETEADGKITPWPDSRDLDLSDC

| SMILES | Span, β-arrestin 1 translocation to CB2 (CB2 [2]; coexpression of GRK1) | Span, β-arrestin 1 translocation to CB2 (CB2 [2]; coexpression of GRK2) | Span, β-arrestin 1 translocation to CB2 (CB2 [2]; coexpression of GRK3) | Span, β-arrestin 1 translocation to CB2 (CB2 [2]; coexpression of GRK4) | Span, β-arrestin 1 translocation to CB2 (CB2 [2]; coexpression of GRK5) | Span, β-arrestin 1 translocation to CB2 (CB2 [2]; coexpression of GRK6) | Span, β-arrestin 1 translocation to CB2 (CB2 [2]; mock (no GRK)) | Span, β-arrestin 2 translocation to CB2 (CB2 [4]; coexpression of GRK1, Table 2) | Span, β-arrestin 2 translocation to CB2 (CB2 [4]; coexpression of GRK2, Table 2) | Span, β-arrestin 2 translocation to CB2 (CB2 [4]; coexpression of GRK3, Table 2) | Span, β-arrestin 2 translocation to CB2 (CB2 [4]; coexpression of GRK4, Table 2) | Span, β-arrestin 2 translocation to CB2 (CB2 [4]; coexpression of GRK5, Table 2) | Span, β-arrestin 2 translocation to CB2 (CB2 [4]; coexpression of GRK6, Table 2) | Span, β-arrestin 2 translocation to CB2 (CB2 [4]; mock (no GRK), Table 2) | also measured |
| --- | --- | --- | --- | --- | --- | --- | --- | --- | --- | --- | --- | --- | --- | --- | --- |
| CCCCC/C=C\C/C=C\C/C=C\C/C=C\CCCC(=O)OC(CO)CO [2-AG, 2-Arachidonoylglycerol] | 83.57 (2.82) ^* ΔBRET.s | 71.73 (3.39) ^* ΔBRET.s | 68.57 (2.99) ^* ΔBRET.s | 62.00 (2.72) ΔBRET.s | 65.96 (1.69) ^* ΔBRET.s | 74.27 (4.00) ^* ΔBRET.s | 56.14 (1.52) ΔBRET.s | 198.6 (8.08) ΔBRET.s | 165.5 (10.92) ^* ΔBRET.s | 164.7 (9.83) ^* ΔBRET.s | 191.3 (6.31) ΔBRET.s | 157.1 (4.07) ^* ΔBRET.s | 158.6 (6.39) ^* ΔBRET.s | 204.9 (14.67) ΔBRET.s | EC50 (CB2 [1]; pEC50, β-arrestin 2 translocation to CB2, HEK 293 cells, mock (no GRK), Table 2): 2.29 µM; EC50 (CB2 [3]; coexpression of GRK1): 3.24 µM; EC50 (CB2 [3]; coexpression of GRK2): 2.29 µM; EC50 (CB2 [3]; coexpression of GRK3): 2 µM; EC50 (CB2 [3]; coexpression of GRK4): 2.88 µM; EC50 (CB2 [3]; coexpression of GRK5): 3.63 µM; EC50 (CB2 [3]; coexpression of GRK6): 3.31 µM; EC50 (CB2 [3]; mock (no GRK)): 3.55 µM; lowering of efficacy of β-arrestin 2 translocation by GRK coexpression (CB2 [4]; coexpression of GRK2, GRK3 and GRK5 versus mock): 10–20% |
| COC(=O)[C@@H](NC(=O)c1nn(Cc2ccc(F)cc2)c2ccccc12)C(C)C [AMB-FUBINACA] | 47.12 (3.44) ^* ΔBRET.s | 45.12 (2.90) ^* ΔBRET.s | 46.69 (1.39) ^* ΔBRET.s | 35.06 (2.32) ΔBRET.s | 38.17 (1.55) ΔBRET.s | 44.72 (3.21) ^* ΔBRET.s | 29.34 (2.43) ΔBRET.s | 134.2 (11.15) ΔBRET.s | 123.2 (9.45) ΔBRET.s | 119.0 (9.10) ΔBRET.s | 126.6 (9.03) ΔBRET.s | 114.6 (5.98) ΔBRET.s | 125.8 (10.37) ΔBRET.s | 123.9 (8.36) ΔBRET.s | pEC50, β-arrestin 2 translocation to CB2 (CB2 [1]; coexpression of GRK1, Table 2): 8.03 (0.06); pEC50, β-arrestin 2 translocation to CB2 (CB2 [1]; coexpression of GRK2, Table 2): 8.28 (0.05) ^*; pEC50, β-arrestin 2 translocation to CB2 (CB2 [1]; coexpression of GRK3, Table 2): 8.17 (0.11); pEC50, β-arrestin 2 translocation to CB2 (CB2 [1]; coexpression of GRK4, Table 2): 8.13 (0.03); pEC50, β-arrestin 2 translocation to CB2 (CB2 [1]; coexpression of GRK5, Table 2): 8.07 (0.07); pEC50, β-arrestin 2 translocation to CB2 (CB2 [1]; coexpression of GRK6, Table 2): 8.12 (0.04); pEC50, β-arrestin 2 translocation to CB2 (CB2 [1]; mock (no GRK), Table 2): 8.15 (0.06); β-arrestin 2 translocation to CB2 (in words) (CB2 [1]; absence of exogenous GRKs): submaximal translocation; pEC50, β-arrestin 1 translocation to CB2 (CB2 [3]; coexpression of GRK1): 7.97 (0.13); pEC50, β-arrestin 1 translocation to CB2 (CB2 [3]; coexpression of GRK2): 8.16 (0.09); pEC50, β-arrestin 1 translocation to CB2 (CB2 [3]; coexpression of GRK3): 8.26 (0.07) ^*; pEC50, β-arrestin 1 translocation to CB2 (CB2 [3]; coexpression of GRK4): 7.98 (0.18); pEC50, β-arrestin 1 translocation to CB2 (CB2 [3]; coexpression of GRK5): 7.97 (0.11); pEC50, β-arrestin 1 translocation to CB2 (CB2 [3]; coexpression of GRK6): 8.01 (0.18); pEC50, β-arrestin 1 translocation to CB2 (CB2 [3]; mock (no GRK)): 7.94 (0.10); β-arrestin 1 translocation to CB2 (in words) (CB2 [3]; absence of exogenous GRKs): submaximal translocation |
